Consider 31 molecules from PubChem BioAssay (NCI).

Values joined by “and” are separate entries in the source; they are usually repeats but may differ in a detail not shown here. Equal values may be shown once.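 Five compound concentrations were applied to cells in 96-well plates for 48 hours; endpoints were derived by simple linear interpolation of the resulting dose-response curve. GI50 is the concentration that inhibits growth by half. Definition used: TGI = concentration required for complete inhibition of growth.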

The first assay relates to OVCAR-5 ovarian. Nature of the assay: NCI-60 cell line screen, 48 h.
As to `COc1ccccc1C1C(C(=O)Nc2ccccc2)=C(C)NC(C)=C1C(=O)Nc1ccccc1`, the TGI is > 100 µM.

`COc1cccc(-c2cc(=O)c3cc(N(C)C)ccc3[nH]2)c1`: the TGI is > 100 µM.

Take `CCCCCCCCCCCC(=O)CC(=O)c1c(O)cccc1O`: the TGI is 36.4 µM.

Regarding `CN(C(=O)C12C3C4C1C1C2C3C41C(=O)C(C)(C)C)C(C)(C)C` (stereo unspecified), the TGI is > 100 µM.

As for `Cc1cc2c(cc1C)[n+](=O)c(C(=O)CC(=O)C(=O)Nc1c(C(C)C)cccc1C(C)C)c(C)n2[O-]`, the TGI is > 100 µM.

The molecule `COc1ccc2cc1Oc1ccc(cc1)CC1c3cc(c(OC)cc3CCN1C)Oc1c3c(cc4c1C(C2)N(C)CC4)OCO3` (stereo unspecified) registered a TGI of 32.4 µM.

Turning to `COc1ccc(OC)c(NC(=O)C(=O)C(C(C)=O)c2nc3ccc(Cl)cc3[nH]c2=O)c1` (stereo unspecified), the TGI was > 50 µM.

With `N#CC(C(=N/O)/C(=N/O)C(C#N)c1ccc(Cl)cc1)c1ccc(Cl)cc1` (stereo unspecified), the TGI was > 100 µM.

In a further assay the test system is RPMI-8226 leukemia. Nature of the assay: NCI-60 cell line screen, 48 h.
For the molecule `CC1(Cl)C(=O)NC(=O)N(C2CC(N=[N+]=[N-])C(CO)O2)C1N=[N+]=[N-]` (stereo unspecified), the TGI was > 100 µM.

Consider `COc1ccc2ccc3c(c2c1)CN1CCc2cc(OC)c(OC)cc2C1C3` (stereo unspecified), for which the TGI was > 100 µM.

As for `OCCC1(O)CCC(O)CC1` (stereo unspecified), the TGI is > 100 µM.

For `CCCCNC1=C(C(=O)OCC)C(=O)CO1`, the TGI was > 100 µM.

Take `CC(C)CC(=O)[O-].CC(C)CC(=O)[O-].N.N.N.N.[Co+3].[O-][Cl+3]([O-])([O-])[O-]`: the GI50 was > 100 µM and the TGI was > 100 µM.

As to `COc1cc(C2c3cc4c(cc3C(NCC(O)CO)C3COC(=O)[C@H]23)OCO4)cc(OC)c1OC` (stereo partly specified), the TGI was > 100 µM.

Consider `CC[CH2][Pb]([CH2]CC)([CH2]CC)[O]C(=O)C(F)(F)F`, for which the GI50 is 0.0627 µM and the TGI was 0.403 µM.

For the molecule `COC(=O)CC(=O)C[P+](c1ccccc1)(c1ccccc1)c1ccccc1`, the TGI is > 218 µM.

With `CCCCN(CCCC)C(=O)C(=O)C(C#N)c1ccc(C)cc1` (stereo unspecified), the TGI was > 100 µM.

As to `CC1(C)CC(/C=C2/OC(=O)c3ccccc32)=C(C#N)C(=O)O1`, the TGI is > 100 µM.

Take `Cc1nc2c(nc1Cl)nc(Oc1ccc(Cl)cc1)c1ccccc12`: the TGI is > 100 µM.

For the molecule `CC(=O)Nc1ccccc1Sc1ccccc1`, the TGI is > 100 µM.

Regarding `COC(=O)C[C@H]1CCC2(OCCO2)[C@]1(C)C(=O)OC`, the TGI is > 100 µM.

Regarding `O=C(CN1CCOCC1)Nc1ccc(Cn2nnc3c2C(=O)c2nnn(Cc4ccc(NC(=O)CN5CCOCC5)cc4)c2C3=O)cc1`, the GI50 is 0.365 µM and the TGI is 2.24 µM.

The molecule `CCCCCCCCCC[C@@H](O)[C@@H]1CC[C@H]([C@H]2CC[C@@H]([C@@H](O)CCCCCCCCCC[C@H]3CC(CC(C)=O)C(=O)O3)O2)O1` (stereo partly specified) showed a TGI of 15.4 µM.

As to `CCOc1ccc2c(c1)[n+]([O-])c(S(=O)(=O)c1ccc(C)cc1)c(N)[n+]2[O-]`, the TGI is > 100 µM.

`CC12CC[C@@H](C(C)(C)O)C1[C@@H](O)CC1(C)C2CCC2[C@@]3(C)CC[C@H](O)C(C)(C)C3C(O)C[C@]21C` (stereo partly specified): the TGI was > 100 µM.

Consider `CCOC(=O)NC(=O)c1cn(C2OC(COC(=O)CCCCCCCCC(=O)OCC3OC(n4cc(C(=O)NC(=O)OCC)c(=O)[nH]c4=O)C(O)C3O)C(O)C2O)c(=O)[nH]c1=O` (stereo unspecified), for which the TGI is > 100 µM.

Turning to `Cc1ccc(C)c(NC(=O)CC/C(=N\NC(=O)C(=O)NN)C(C)C(=O)c2ccc(O)cc2)c1` (stereo unspecified), the TGI is > 100 µM.

The molecule `N=C1CSC2=NC3=C(CCC/C3=C\c3ccccc3)C(c3ccccc3)N12` (stereo unspecified) registered a TGI of 5.57 µM.

Molecule `COc1ccc(CNc2cc(OC)c(OC)c(OC)c2)cc1` came in with a TGI of 83.1 µM.

Turning to `COc1ccccc1C1C(C(=O)Nc2ccccc2)=C(C)NC(C)=C1C(=O)Nc1ccccc1`, the TGI was > 100 µM.

For the molecule `OCc1ccc2[n+](c1)CCC1c3ccccc3NC21` (stereo unspecified), the TGI is > 300 µM.

`CCCCCCCCCCCC(=O)CC(=O)c1c(O)cccc1O` registered a TGI of 43.9 µM.

Take `CN(C(=O)C12C3C4C1C1C2C3C41C(=O)C(C)(C)C)C(C)(C)C` (stereo unspecified): the TGI is > 100 µM.

For the molecule `Cc1cc2c(cc1C)[n+](=O)c(C(=O)CC(=O)C(=O)Nc1c(C(C)C)cccc1C(C)C)c(C)n2[O-]`, the TGI is > 100 µM.

`COc1ccc(OC)c(NC(=O)C(=O)C(C(C)=O)c2nc3ccc(Cl)cc3[nH]c2=O)c1` (stereo unspecified): the TGI was > 50 µM.

As to `N#CC(C(=N/O)/C(=N/O)C(C#N)c1ccc(Cl)cc1)c1ccc(Cl)cc1` (stereo unspecified), the TGI was > 100 µM.

For the next assay, the system named is SR leukemia. As to the kind of experiment: NCI-60 cell line screen, 48 h.
For `COc1ccc2ccc3c(c2c1)CN1CCc2cc(OC)c(OC)cc2C1C3` (stereo unspecified), the TGI is > 100 µM.

As to `OCCC1(O)CCC(O)CC1` (stereo unspecified), the TGI is > 100 µM.

Regarding `COc1cc(C2c3cc4c(cc3C(NCC(O)CO)C3COC(=O)[C@H]23)OCO4)cc(OC)c1OC` (stereo partly specified), the TGI was > 100 µM.

For the molecule `COC(=O)CC(=O)C[P+](c1ccccc1)(c1ccccc1)c1ccccc1`, the TGI is > 218 µM.

`Cc1ccc(S(=O)(=O)C(CC(=O)N2CCCC2)C(=O)c2ccccc2)cc1` (stereo unspecified): the TGI is > 100 µM.

As to `CC1(C)CC(/C=C2/OC(=O)c3ccccc32)=C(C#N)C(=O)O1`, the TGI was > 100 µM.

On to `Cc1nc2c(nc1Cl)nc(Oc1ccc(Cl)cc1)c1ccccc12`, for which the TGI was > 100 µM.

In the case of `O=C(CN1CCOCC1)Nc1ccc(Cn2nnc3c2C(=O)c2nnn(Cc4ccc(NC(=O)CN5CCOCC5)cc4)c2C3=O)cc1`, the GI50 is 0.516 µM and the TGI is 3.97 µM.

For the molecule `CCOC(=O)NC(=O)c1cn(C2OC(COC(=O)CCCCCCCCC(=O)OCC3OC(n4cc(C(=O)NC(=O)OCC)c(=O)[nH]c4=O)C(O)C3O)C(O)C2O)c(=O)[nH]c1=O` (stereo unspecified), the TGI was > 100 µM.

For `Cc1ccc(C)c(NC(=O)CC/C(=N\NC(=O)C(=O)NN)C(C)C(=O)c2ccc(O)cc2)c1` (stereo unspecified), the TGI was > 100 µM.

Take `COc1ccc(CNc2cc(OC)c(OC)c(OC)c2)cc1`: the TGI is > 100 µM.

As for `OCc1ccc2[n+](c1)CCC1c3ccccc3NC21` (stereo unspecified), the TGI is > 300 µM.

As to `COc1cccc(-c2cc(=O)c3cc(N(C)C)ccc3[nH]2)c1`, the GI50 is 0.00495 µM and 0.00224 µM; the TGI was 0.188 µM and 0.0233 µM.

The molecule `CCCCCCCCCCCC(=O)CC(=O)c1c(O)cccc1O` gave a TGI of 45.8 µM.

With `Cc1cc2c(cc1C)[n+](=O)c(C(=O)CC(=O)C(=O)Nc1c(C(C)C)cccc1C(C)C)c(C)n2[O-]`, the TGI is > 100 µM.

`COc1ccc2cc1Oc1ccc(cc1)CC1c3cc(c(OC)cc3CCN1C)Oc1c3c(cc4c1C(C2)N(C)CC4)OCO3` (stereo unspecified) came in with a TGI of 28.2 µM.

The subject of another assay is SW-620 colon. As to the kind of experiment: NCI-60 cell line screen, 48 h.
`CC1(Cl)C(=O)NC(=O)N(C2CC(N=[N+]=[N-])C(CO)O2)C1N=[N+]=[N-]` (stereo unspecified): the TGI is > 100 µM.

On to `COc1ccc2ccc3c(c2c1)CN1CCc2cc(OC)c(OC)cc2C1C3` (stereo unspecified), for which the TGI is > 100 µM.

As for `OCCC1(O)CCC(O)CC1` (stereo unspecified), the TGI was > 100 µM.

On to `CCCCNC1=C(C(=O)OCC)C(=O)CO1`, for which the TGI is > 100 µM.
